Assay [1] is described as follows: Binding affinity to ODN1/2 double strand DNA by fluorescence spectra.
Assay [2] in a line: Binding affinity to AT-rich sequence of double strand DNA by fluorescence spectra.

Active and inactive are the calls of the source. No cut-off for these calls is given here.

Consider `CC(=O)Nc1cc(C(=O)Nc2cc(C(=O)NCCC(=O)Nc3cc(C(=O)Nc4cc(C(=O)NCCC(=O)NCCCN(C)C)n(C)c4)n(C)c3)n(CC#Cc3ccc4c5cccc6cccc(c7cccc3c74)c65)c2)n(C)c1`, for which the result in assay [1] and in assay [2] was Active.

Source of the values: ChEMBL document CHEMBL1152263, “Perylene-conjugated pyrrole polyamide as a sequence-specific fluorescent probe” (Bioorg Med Chem, 2008).
